Laboratory results reported in patent publication US20180325781A1, “FORMULATIONS FOR CONTROLLED RELEASE OF BUPIVACAINE” (Research Triangle Institute, priority 2017, published 2018).
Where a name gives a salt, the structure may show the parent alone.

Assays:
[1] = diffusion/release of free (unencapsulated) BP through hemostat matrix, dialysis method; assay type: physicochemical; details: 1 mg free BP-HCl in 50 or 100 mg Gelfoam or Avitene; 1xPBS pH 7.2, 37° C.; over 24 hours
Method: FIG. 5 is a graphical representation of the release of unencapsulated BP from matrix material. 1 mg of free BP—HCl in 0.9 wt/vol % NaCl was combined with either Gelfoam® or Avitene™ (at either 50 mg or 100 mg of matrix) and monitored for release through the matrix over time. The samples were placed in dialysis tubing and submerged in 1×PBS (pH=7.2) at 37° C.
To test the diffusion of free BP (i.e., not encapsulated in microparticles) through the hemostat, the material (i.e., free BP mixed with hemostat) was submerged in physiological media and the released BP measured over time.
In vitro release studies were performed using a dialysis method. […]
UHPLC analysis of released BP was performed on a Waters (Milford, Mass.) ACQUITY UHPLC system equipped with a PDA detector set to 205 nm to quantify BP. […]
The acid form of BP was chromatographically separated on a Waters ACQUITY BEH C18 column (1.7 μm, 2.1×50 mm) by isocratic elution with 70% phosphate buffer/30% ACN at a flow rate of 0.60 mL/min. […] Calibration standards were analyzed and the peaks corresponding to BP were integrated, plotted against the concentration, and the calibration curve was calculated by linear least-squares regression without weighting. […]

[2] = single injection; cited from earlier work

Structure (SMILES)	release of free BP from the hemostat [1]	complete elimination [2]	time to maximum plasma drug concentration [2]
CCCCN1CCCCC1C(=O)Nc1c(C)cccc1C (stereo not drawn) [free BP, bupivacaine hydrochloride monohydrate]	majority of free BP was released	–	–
CCCCN1CCCCC1C(=O)Nc1c(C)cccc1C (stereo not drawn) [bupivacaine]	–	6 to 8 h	30 to 45 min
